According to patent publication US20260027126A1, “COMBINATION THERAPY FOR TREATING CANCERS” (GEISTLICH PHARMA AG, priority 2022, published 2026):
“Also recorded” adds a separate entry of the source.

Assays:
[1] = system: high-grade ovarian cancer cells (OVCAR8) labeled with luciferase gene; assay: in vivo therapy experiment, orthotopic OVCAR8-L ovarian cancer mouse model; parameters: species or system mice; settings: GP-2250 500 mg/kg 3 times per week i.p., PARP inhibitor 50 mg/kg 5 times per week i.p., take down day 49
Protocol: FIG. 1 schematically illustrates the experimental design for in vivo testing of the GP-2250 and PARP inhibitors on OVCAR8-L mice. The experiment includes testing: vehicle control, Ringer's solution (10 mice, 200 μl, i.p.); 2) GP-2250 (10 mice, 500 mg/kg. 3 times per week, i.p.); 3) Olaparib (10 mice, 50 mg/kg, 5 times per week, i.p.); 4) the combination of GP-2250 and Olaparib; 5) Niraparib (10 mice, 50 mg/kg, 5 times per week, i.p.); 6) the combination of GP-2250 and Niraparib (10 mice): 7) Rucparib (10 mice, 50 mg/kg, 5 times per week, i.p.); 8) the combination of GP-2250 and Rucaparib . . .
Tumorigenicity of OVCAR8-L was determined using IVIS imaging. IVIS imaging following OCVAR8-L injection. 1×10^6 cells were injected through i.p., and then tumorigenicity was measured. All mice were injected with high-grade ovarian cancer cells (OVCAR8) labeled with luciferase gene by i.p. route.
(§1) In vivo model of ovarian cancer: Pharmacodynamic study and therapeutic experiment using OVCAR8 ovarian cancer model were performed.

solubility = assay type: physicochemical
[2] = system: ovarian cancer cell lines; assay: cytotoxic effect / cell viability assay in ovarian cancer cell lines; assay type: cell-based, Human
Protocol: (§2) Human Ovarian cancer cell lines: A2780, Coav3, HeyA8, HeyA8-MDR, Kuramochi, OVCAR3, OVCAR5, OVCAR8, and SKOV3 were obtained and used in studies.
(§3) In vitro assays: Cell viability assay, Western blotting, Colony formation assay, Reverse-phase protein array, and Ultra-high resolution mass spectrometry analysis were performed.
as §1

HIF-1α = assay: Reverse Phase Protein Array / Western blotting of ovarian cancer cells: HIF-1α; assay type: cell-based, Human
Protocol: as §2, §3

AKT [3] = assay: Reverse Phase Protein Array / Western blotting of ovarian cancer cells: AKT; assay type: cell-based, Human
Protocol: as §2, §3

mTOR [4] = assay: Reverse Phase Protein Array / Western blotting of ovarian cancer cells: mTOR; assay type: cell-based, Human
Protocol: as §2, §3

hexokinase2 = molecular target: T1, hexokinase2 (Homo sapiens, UniProt P52789); assay: hexokinase2 activity and expression (ultra-high resolution mass spectrometry analysis, FIG. 16); assay type: cell-based; settings: GP-2250 treatment of cancer cells
T1 construct: endogenous in cells; host or cells: human ovarian cancer cell lines
T1 sequence (P52789 1-917): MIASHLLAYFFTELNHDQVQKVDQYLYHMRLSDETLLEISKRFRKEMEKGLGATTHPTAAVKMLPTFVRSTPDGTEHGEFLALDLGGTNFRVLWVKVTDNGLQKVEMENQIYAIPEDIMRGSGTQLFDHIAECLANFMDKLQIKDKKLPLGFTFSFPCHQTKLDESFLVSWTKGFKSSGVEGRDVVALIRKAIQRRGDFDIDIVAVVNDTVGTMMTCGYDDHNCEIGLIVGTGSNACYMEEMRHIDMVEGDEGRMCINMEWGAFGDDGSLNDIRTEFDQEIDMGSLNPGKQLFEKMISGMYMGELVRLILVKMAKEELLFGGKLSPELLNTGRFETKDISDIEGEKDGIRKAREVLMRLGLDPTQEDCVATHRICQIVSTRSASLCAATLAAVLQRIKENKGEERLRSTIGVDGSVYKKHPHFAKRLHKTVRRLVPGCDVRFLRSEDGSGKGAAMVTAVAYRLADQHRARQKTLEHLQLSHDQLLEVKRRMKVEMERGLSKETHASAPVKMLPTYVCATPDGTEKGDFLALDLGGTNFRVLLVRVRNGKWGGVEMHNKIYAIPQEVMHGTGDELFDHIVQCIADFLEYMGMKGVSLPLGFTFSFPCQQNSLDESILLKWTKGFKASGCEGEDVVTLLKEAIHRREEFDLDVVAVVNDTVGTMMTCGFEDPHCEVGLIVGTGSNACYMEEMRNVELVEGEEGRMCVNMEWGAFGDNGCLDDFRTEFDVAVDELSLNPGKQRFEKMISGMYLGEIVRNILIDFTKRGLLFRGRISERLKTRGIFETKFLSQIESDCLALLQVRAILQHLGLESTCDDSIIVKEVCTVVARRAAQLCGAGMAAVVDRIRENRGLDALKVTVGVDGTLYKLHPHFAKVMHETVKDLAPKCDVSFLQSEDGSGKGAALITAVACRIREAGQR
Protocol: as §2, §3

cancer cells = assay: glycolysis and ATP synthesis in cancer cells; assay type: cell-based, Human
Protocol: as §3

AKT [5] = assay: in vivo pharmacodynamic experiment, OVCAR8 mouse model: AKT; settings: dose of 500 mg/kg
Protocol: as §1
(§4) FIGS. 17A-17B show pharmacodynamics studies of GP-2250.

mTOR [6] = assay: in vivo pharmacodynamic experiment, OVCAR8 mouse model: mTOR; settings: dose of 500 mg/kg
Protocol: as §1, §4

[7] = Western blot, ovarian cancer cells treated for 24 hours

## CNCc1ccc(-c2[nH]c3cc(F)cc4c3c2CCNC4=O)cc1 [rucaparib]
[1]
  tumor nodules (number): 4.85±0.79
  tumor weight: 0.52 ± 0.1 g
solubility
  solubility: relatively poor solubility

## O=S1(=O)CCOCN1 [GP-2250]
[1]
  tumor nodules (number): 2.9±0.48
  tumor weight: 2.9 ± 0.48 g
[2]; HRD cells (Kuramochi, OVCAR4, OVCAR8) compared with HRP cells (A2780, OVCAR5), both vulnerable
  cytotoxic effect: vulnerability of HRD versus HRP ovarian cancer cells: more vulnerable
[2]; ovarian cancer cells
  apoptosis: increased apoptosis
  proliferation: reduced proliferation
HIF-1α; RPPA analyses
  hypoxia-inducible factor-1a activation and expression level: inhibited
HIF-1α; [7]
  HIF-1α expression: inhibits
AKT [3]; RPPA analyses
  AKT activation and expression level: inhibited
AKT [3]; [7]
  AKT expression: inhibits
mTOR [4]; RPPA analyses
  mTOR activation and expression level: inhibited
mTOR [4]; [7]
  mTOR expression: inhibits
hexokinase2
  hexokinase2 activity and expression: inhibition; also recorded: significantly reduced
Cancer cells
  ATP synthesis: reduced
  glycolysis: decreases; also recorded: reduced
AKT [5]
  downregulation of AKT activation and expression: most effective
mTOR [6]
  downregulation of mTOR activation and expression: most effective

## O=C(c1cc(Cc2n[nH]c(=O)c3ccccc23)ccc1F)N1CCN(C(=O)C2CC2)CC1 [olaparib]
[1]
  tumor nodules (number): 3.3±0.64
  tumor weight: 0.53 ± 0.09 g

## NC(=O)c1cccc2cn(-c3ccc([C@@H]4CCCNC4)cc3)nc12 [niraparib]
[1]
  tumor nodules (number): 3.4±0.44
  tumor weight: 0.38 ± 0.05 g
